# Data: PMC5418711, “Safety and efficacy of the choline analogue SAR97276 for malaria treatment: results of two phase 2, open-label, multicenter trials in African patients” (Malaria Journal, 2017)
# Read-outs that look alike come from different tables or passages of the source.
# What was measured:
# [1] = system: P. falciparum laboratory and clinical isolates; set-up: method as in PMID 11847346, PMID 15492221; details: cited from earlier work
# P. falciparum = experiment: Study 1: phase 2 trial, efficacy of SAR97276A in uncomplicated falciparum malaria patients; type: in vivo, Plasmodium falciparum; details: for Median time to 50% parasite reduction (95% CI) / Median time to 90% parasite reduction (95% CI): Kaplan–Meier; for Recurrences up to day 28: patients judged successfully treated after 72 h
# Method: The study was designed to enroll up to 210 malaria patients in sequential cohorts. A staggered trial design was planned to assess a single, IM dose of SAR97276A (0.18 mg/kg, or 12.5 mg fixed dose) first in adults and then progressively in children (age 7–17 years) and young children (age 0.5–7 years). Age de-escalation of the study was only allowed if threshold response rate in the respective study cohort was met (26 patients out of 30 patients need to have met the 4 criteria of the primary endpoint at 72 h plus adequate safety results). If efficacy criteria were not met but safety was acceptable, SAR97276A would be tested as a 3-day IM regimen (3 injections, 24 h apart) in an additionally recruited 30 patients of the respective cohort. Subsequently, in case of acceptable safety and efficacy, all following cohorts were treated with the 3-day IM regimen. In parallel, SAR97276A was planned to be tested as a single, IV dose (0.14 mg/kg or 10 mg fixed dose) first in adults and then in young children with severe malaria, if threshold response rate was met. An overview of this adaptive study design can be seen in Fig. 1 and Table 1.
# The following age cohorts were planned to be enrolled: (i) Adults aged 18–65 years, body weight ≥50 kg, and uncomplicated malaria with P. falciparum ≥100 parasites/µL; (ii) children aged 7–17 years, and uncomplicated malaria with P. falciparum ≥1000 parasites/µL, and (iii) young children aged of 0.5–7 years with uncomplicated malaria (P. falciparum count ≥1000 parasites/µL) and as an additional group with symptoms or signs of severe malaria according to WHO [9]. Adults received SAR97276A either by IM (study group 1A and 1B) or by IV route (study group 1C). Children received SAR97276A only by IM injection (study group 1D). Young children (0.5–7 years) both with uncomplicated and with severe malaria were not included as Study 1 was stopped before reaching these cohorts due to lack of efficacy.
# Study duration and follow-up In both studies, study duration was 28 days for each patient including a screening period of up to 12 h before inclusion into the study. Participants were hospitalized for at least 3 days (72 h) after the start of treatment. Follow-up visits were done on day 6, 8, 14 ± 2, 21 ± 2, 28 ± 2 (Study 1); and day 7, 14 ± 2, 21 ± 2, 28 ± 2 (Study 2). Patient examination Fever measurements and thick blood smears were done every 6 h until 72 h and at each follow-up visit. Parasitemia was determined microscopically by Giemsa stained thick blood smear by two trained microscopists blinded to each other. Safety assessment Safety analysis was based on AEs including vision assessment recorded from baseline until day 28 (in binocular conditions, for near and distant visual acuity, using standard optotypes appropriate for patient’s age and reading ability. Tests with standard corrective glasses (+3 and −3 diopters) were performed in case of visual adverse events, to assess whether vision improved or worsened with corrective glasses). Laboratory tests including hematology, biochemistry and urine analysis were done at baseline, day 2, 4, 28 (Study 1), or baseline, day 2, 4, 14, 28 (Study 2); vital signs were recorded at baseline, every 6 h until 72 h and on each follow up visit. An electrocardiogram (ECG) was done at baseline, day 4, 28 (Study 1), or baseline, 48 h, 72 h, day 28 (Study 2). For Study 2 respiratory parameters (respiratory rate, peak flow, efficiency of cough) were also checked at baseline and 30 min after first dose on day 1, 2 and 3.
# Definition of fever clearance Fever was defined as temperature ≥38 °C.
# Definition of general condition improvement The symptoms were scored at baseline and every 6 h up to day 4 (72 h), including headache, fatigue, nausea-vomiting and abdominal pain. The symptoms were scored according to the following scale: absent -0-, mild -1-, moderate -2- and severe -3-. The total clinical score ranged between 0 and 12. […]
# [2] = Population pharmacokinetics in plasma, Study 1 and Study 2; type: in vivo, human; details: for AUC(0-t) / Cmax / Vd / clearance: human, plasma; for AUC(0-t) / Cmax: mean and SD; for AUC(0-t): read-out: AUC or AUC0-24,ss; for Cmax: read-out: Cmax or Cmax,ss; for Vd: read-out: Median central volume of distribution V2; for clearance: read-out: Median clearance (converted)
# Method: Rescue therapy was initiated in case of clinical aggravation of recrudescent parasites in both studies, the exact description for each study can be seen in the supplement (Additional file 3). Pharmacokinetic analysis: Plasma samples were assayed using a validated liquid chromatography-mass spectrometry method with a limit of quantification of 1 ng/ml for SAR97276. The pharmacokinetic analysis was performed using a population pharmacokinetic modeling approach.
# The pharmacokinetics of SAR97276 were best described by a three-compartment model, with a first order absorption (ka), with interindividual variability on clearances and central volume of distribution.
# [3] = Group 1A: 1 day IM 0.18 mg/kg, adults, N=34
# [4] = Group 1A: 1 day IM 0.18 mg/kg, adults, PCR data available 12/14
# [5] = Group 1B: 3 days IM 0.18 mg/kg, adults, N=30
# [6] = Group 1B: 3 days IM 0.18 mg/kg, adults, PCR data available 11/13
# [7] = Group 1C: 1 day IV 0.14 mg/kg, adults, N=30
# [8] = Group 1C: 1 day IV 0.14 mg/kg, adults, PCR data available 10/15
# [9] = Group 1D: 3 days IM 0.18 mg/kg, children
# [10] = Group 1D: 3 days IM 0.18 mg/kg, children, N=19
# [11] = Group 1D: 3 days IM 0.18 mg/kg, children, PCR data available 8/8
# [12] = im, 0.18 mg/kg, Group 1D: 3 days IM 0.18 mg/kg, children, n=14
# [13] = im, 0.18 mg/kg, Study 1 Adults IM (1A + 1B) 0.18 mg/kg, n=64
# [14] = im, 0.5 mg/kg, Group 2A: 3 days IM once daily 0.5 mg/kg, teenagers, n=8
# [15] = intramuscular, 0.18 mg/kg, children
# [16] = iv, 0.14 mg/kg, Group 1C: 1 day IV 0.14 mg/kg, adults, n=30
smiles,measurement,setting,value
Cc1c(CCO)sc[n+]1CCCCCCCCCCCC[n+]1csc(CCO)c1C [SAR97276A],In vitro-activity against P. falciparum laboratory and clinical isolates,[1],powerful in vitro-activity
same,General condition improvement at 48 h: Failure,P. falciparum; [3],2 (6%)
same,General condition improvement at 48 h: Success,P. falciparum; [3],32 (94%)
same,Parasite reduction (at least 90% at 72 h): Failure,P. falciparum; [3],11 (32%)
same,Parasite reduction (at least 90% at 72 h): Success,P. falciparum; [3],23 (68%)
same,Rescue therapy criterion (no need for rescue therapy): Failure,P. falciparum; [3],5 (15%)
same,Rescue therapy criterion (no need for rescue therapy): Success,P. falciparum; [3],29 (85%)
same,Median time to 50% parasite reduction (95% CI),P. falciparum; [3],18.0 (12.0–24.0) h
same,Median time to 90% parasite reduction (95% CI),P. falciparum; [3],30.0 (18.0–30.0) h
same,New infection (PCR genotyped recurrences up to day 28),P. falciparum; [4],9 (75%)
same,Recrudescences (PCR genotyped recurrences up to day 28),P. falciparum; [4],3 (25%)
same,Recurrences up to day 28,"P. falciparum; Group 1A: 1 day IM 0.18 mg/kg, adults",14
same,General condition improvement at 48 h: Failure,P. falciparum; [5],2 (7%)
same,General condition improvement at 48 h: Success,P. falciparum; [5],28 (93%)
same,Parasite reduction (at least 90% at 72 h): Failure,P. falciparum; [5],2 (7%)
same,Parasite reduction (at least 90% at 72 h): Success,P. falciparum; [5],28 (93%)
same,Rescue therapy criterion (no need for rescue therapy): Failure,P. falciparum; [5],1 (3%)
same,Rescue therapy criterion (no need for rescue therapy): Success,P. falciparum; [5],29 (97%)
same,Median time to 50% parasite reduction (95% CI),P. falciparum; [5],18.0 (6.0–24.0) h
same,Median time to 90% parasite reduction (95% CI),P. falciparum; [5],24.0 (12.0–36.0) h
same,New infection (PCR genotyped recurrences up to day 28),P. falciparum; [6],6 (54.5%)
same,Recrudescences (PCR genotyped recurrences up to day 28),P. falciparum; [6],5 (45.5%)
same,Recurrences up to day 28,"P. falciparum; Group 1B: 3 days IM 0.18 mg/kg, adults",13
same,General condition improvement at 48 h: Failure,P. falciparum; [7],1 (3%)
same,General condition improvement at 48 h: Success,P. falciparum; [7],29 (97%)
same,Parasite reduction (at least 90% at 72 h): Failure,P. falciparum; [7],7 (23%)
same,Parasite reduction (at least 90% at 72 h): Success,P. falciparum; [7],23 (77%)
same,Rescue therapy criterion (no need for rescue therapy): Failure,P. falciparum; [7],1 (3%)
same,Rescue therapy criterion (no need for rescue therapy): Success,P. falciparum; [7],29 (97%)
same,Median time to 50% parasite reduction (95% CI),P. falciparum; [7],9.0 (6.0–18.0) h
same,Median time to 90% parasite reduction (95% CI),P. falciparum; [7],30.0 (18.0–30.0) h
same,New infection (PCR genotyped recurrences up to day 28),P. falciparum; [8],6 (60%)
same,Recrudescences (PCR genotyped recurrences up to day 28),P. falciparum; [8],4 (40%)
same,Recurrences up to day 28,"P. falciparum; Group 1C: 1 day IV 0.14 mg/kg, adults",15
same,Recrudescence of the same parasite until day 14 in successfully cured children (assessed after 72 h),P. falciparum; [9],3/13
same,Enrolled patients failed to meet the predetermined efficacy response criteria,"P. falciparum; Group 1D: 3 days IM 0.18 mg/kg, children's cohort",5/19
same,General condition improvement at 48 h: Failure,P. falciparum; [10],1 (5%)
same,General condition improvement at 48 h: Not evaluable,P. falciparum; [10],1 (5%)
same,General condition improvement at 48 h: Success,P. falciparum; [10],17 (90%)
same,Parasite reduction (at least 90% at 72 h): Failure,P. falciparum; [10],5 (26%)
same,Parasite reduction (at least 90% at 72 h): Not evaluable,P. falciparum; [10],0
same,Parasite reduction (at least 90% at 72 h): Success,P. falciparum; [10],14 (74%)
same,Rescue therapy criterion (no need for rescue therapy): Failure,P. falciparum; [10],4 (21%)
same,Rescue therapy criterion (no need for rescue therapy): Not evaluable,P. falciparum; [10],0
same,Rescue therapy criterion (no need for rescue therapy): Success,P. falciparum; [10],15 (79%)
same,Median time to 50% parasite reduction (95% CI),P. falciparum; [10],24.0 (12.0–24.0) h
same,Median time to 90% parasite reduction (95% CI),P. falciparum; [10],24.0 (24.0–30.0) h
same,New infection (PCR genotyped recurrences up to day 28),P. falciparum; [11],0
same,Recrudescences (PCR genotyped recurrences up to day 28),P. falciparum; [11],8 (100%)
same,Recurrences up to day 28,P. falciparum; [9],8
same,"Recurrences in the successfully treated patients until day 28, total","P. falciparum; Study 1, all groups",50
same,"New infections among genotyped recurrences, total","P. falciparum; Study 1, all groups, 41 recurrences genotyped by PCR",21
same,AUC(0-t),[2]; [12],479 ± 111 ng·h/mL
same,Cmax,[2]; [12],332 ± 91 ng/mL
same,AUC(0-t),[2]; [13],674 ± 109 ng·h/mL
same,Cmax,[2]; [13],355 ± 51 ng/mL
same,AUC(0-t),"[2]; im, 0.25 mg/kg, Group 2B: 3 days IM twice daily 0.25 mg/kg, teenagers, n=8, AUC0-12 at steady state multiplied by 2",1400 ± 270 ng·h/mL
same,Cmax,"[2]; im, 0.25 mg/kg, Group 2B: 3 days IM twice daily 0.25 mg/kg, teenagers, n=8",477 ± 91 ng/mL
same,AUC(0-t),[2]; [14],1470 ± 375 ng·h/mL
same,Cmax,[2]; [14],862 ± 45 ng/mL
same,Vd,[2]; [15],0.217 L/kg
same,clearance,[2]; [15],6.55 mL/min/kg
same,AUC(0-t),[2]; [16],480 ± 92 ng·h/mL
same,Cmax,[2]; [16],390 ± 55 ng/mL
same,Vd,[2]; adults,0.27 L/kg
same,clearance,[2]; adults,4.58 mL/min/kg
same,Inter-individual variability based on Cmax and AUC,[2]; whatever the populations or the route of administration,< 25%
